Results: patent US20220110882A1, “SYNTHETICALLY LETHAL NANOPARTICLES FOR TREATMENT OF CANCERS” (UNIVERSITY OF IOWA RESEARCH FOUNDATION, priority 2017, published 2022)

What was measured:
[1] = test system: GOF Hec50co cells; test: BIBFs effect on NPs uptake using flow cytometry; type: cell-based, human; conditions: 1 μM BIBFs, 6 h, serum containing media
Procedure: (§1) BIBFs effect on NPs uptake using flow cytometry. The effect of BIBFs on the uptake of different RHDp against Hec50co cells and GOF Hec50co cells was tested. Both cell lines were plated at a seeding density of 10^5 cell/well in 12 well plate, and then the experiment was carried out as mentioned in section [00125]) with two exceptions: a) RHDp uptake was evaluated in the presence or absence of 1 μM BIBFs, b) the experiment was carried out in serum containing media to mimic the in vivo conditions.

[2] = test system: Hec50co cells; test: BIBFs effect on NPs uptake using flow cytometry; type: cell-based, human; conditions: 1 μM BIBFs, 6 h, serum containing media
Procedure: as §1

[3] = test system: Hec50co cells; conditions: 5 mg/kg each IV on days 18, 25, 32
Procedure: In vivo efficacy studies using mouse xenograft model of LOF p53 USC. Female athymic NCI-nu/nu mice (Charles River, Wilmington, Mass.) at the age of 6-8 weeks were challenged subcutaneously with 2×10^6 Hec50co cells in the right flank after isoflurane anesthesia. […] Mice were 5 per group, except the group that received the combination therapy were 7. Treatments were administered TV through retro-orbital injections in the venous sinus on days 18, 25, and 32. The tumor diameters and height were measured using digital caliper. The tumor volumes were calculated from the following formula:
Where D1 is the first tumor diameter (mm), D2 is the second tumor diameter (mm), and H is the tumor height.
Mice weights were monitored during the experiment and mice were euthanized once the tumor diameter exceeded 2 cm or tumor height exceeded 1 cm. Sample sizes for this experiment were estimated based on preliminary data in order to have 80% power to detect significant differences between groups. All animal experiments were not blinded, and were carried out in accordance with guidelines and regulations approved by the University of Iowa Institutional Animal Care and Use Committee.

Structure (SMILES)	increase in fluorescence intensity on addition to RHDp (75/T) [1] [fold]	increase in fluorescence intensity on addition to RHDp (75/T) [2] [fold]	median survival [3] [days]
COC(=O)c1ccc2c(c1)NC(=O)/C2=C(\Nc1ccc(N(C)C(=O)CN2CCN(C)CC2)cc1)c1ccccc1 [BIBFs, BIBF-1120]	1.5	1.5	
CC(=O)O[C@H]1C(=O)[C@@]2(C)[C@H]([C@H](OC(=O)c3ccccc3)[C@]3(O)C[C@H](OC(=O)[C@H](O)[C@@H](NC(=O)c4ccccc4)c4ccccc4)C(C)=C1C3(C)C)[C@]1(OC(C)=O)CO[C@@H]1C[C@@H]2O [PTXs, paclitaxel]			41
